# Reference: patent publication US11649222B2, “Compounds” (UNIVERSITETET I OSLO, priority 2016, dated 2023)
# Structures can show the parent of a compound that is named as a salt. Where two headings read alike, the source gives them in different places. Marks after values point to notes of the source that are not given here.
# Tests used:
# Assay type in all cases: cell-based
# [1] = tested on: resistant gram-negative MBL-based bacteria; experiment: MICx: adjuvant concentration giving carbapenem MIC ≤ 2 mg/L
# Experimental: (§1) • Plate bacterial strain(s) on appropriate media: • Gram-negative bacteria with ESBLs or carbapenemases: green agar plates with 100 mg/L ampicillin • Gram-negative bacteria without β-lactamases: green agar plates • Gram-positive bacteria (Staphylococci and Enterococci): blood agar plates • Incubate o.n. at 37° C. […] (Should be used within 15 min of preparation). • Dilute the 0.5 McFarland suspension 1:100 into MH broth. […] Plate 10 μl of the dilution on MH agar plates (×2). Incubate o.n. at 37° C., count the colonies and calculate the final CFU/ml inoculum in the plate by multiplying the average number of colonies with 10000 and divide by 2. The final inoculum should be between 3-7×10^5 CFU/ml. • Add 50 μl of the prepared bacterial suspension to each well in the microtiter plate except negative growth control. Preparation of Compounds/Antibiotics • Calculate the desired concentration-range and volume of the compounds/antibiotics in the assay. […] Dilute the stock solution in MH broth. Make subsequent 2-fold dilutions in MH broth of the desired concentrations if a concentration range is to be tested (remember the extra dilution factor in the assay plate). Always include extra volume for pipetting. Take into consideration stock solutions that are made in buffers that have an effect on bacterial growth (e.g. DMSO).
# human hepG2 cells = experiment: In vitro toxicity in human hepG2 cells (AlamarBlue viability)
# Experimental: For viability assays, cells were seeded in white 96-well Nunclon plates at a density of 20,000 cells/well and left overnight to adhere before experiments were conducted. Zn chelators dissolved in DMSO were added to white 96-well plates containing 20000 HepG2 cells/well at concentrations ranging from 1 to 1×10^−6 mM (max DMSO concentration never exceeded 1%) and incubated for 24 hours at 37° C. After 24 hours, AlamarBlue® cell viability reagent (Thermo Fisher, Carlsbad, USA) was added (10% final concentration) and incubated for 4 hours at 37° C.
# [2] = tested on: P. aeruginosa K34-7 (VIM-2); experiment: Microbroth dilution MIC of carbapenem with/without inhibitor; conditions: for Meropenem activity in presence of inhibitor: inhibitor 63 mg/L
# Experimental: as §1
# [3] = tested on: K. pneumoniae K66-45 (NDM-1); experiment: as above; conditions: K. pneumoniae K66-45 NDM-1; for Meropenem activity in presence of inhibitor: inhibitor 63 mg/L
# Experimental: as §1
# [4] = Homo sapiens, HepG2, read-out: IC50h
# [5] = lowest concentration of compound X that results in a MIC value of ≤ 2 mg/L for carbapenem antibiotics
# [6] = human hepG2 cells, 24 hours, AlamarBlue, 8 replicates, read-out: IC50
# [7] = human hepG2 cells, read-out: IC50h
# [8] = Homo sapiens, HepG2, estimated values (footnote c), read-out: IC50h
structure (smiles),measurement,setting,value
"COC(=O)c1ccc(CN(Cc2ccccn2)Cc2ccccn2)nc1 [Example 12, methyl 6-((bis(pyridin-2-ylmethyl)amino)methyl)nicotinate]",MICx,[1],31 µM
same,IC50,"human hepG2 cells; Homo sapiens, HepG2, 24 h",16.5 µM
same,IC50,human hepG2 cells; [4],16.4 µM
OC1O[C@H](Cn2cc(CN(CCN(Cc3ccccn3)Cc3ccccn3)Cc3ccccn3)nn2)[C@H](O)[C@H](O)[C@H]1O (some centres unmarked) [Example 91],MICx,[1]; [5],31 µM
same,IC50,human hepG2 cells; [6],165 µM
same,IC50,human hepG2 cells; [7],165 µM
"c1ccc(CN(Cc2ccccn2)Cc2ccccn2)nc1 [TPA, N,N,N-tris(2-pyridylmethyl) amine, reference compound]",EC50,"human hepG2 cells; Homo sapiens, HepG2",10 µM
"O=C(NC(CO)(CO)CO)c1ccc(CN(Cc2ccccn2)Cc2ccccn2)nc1 [Example 103, 6-((bis(pyridin-2-ylmethyl)amino)methyl)-N-(1,3-dihydroxy-2-(hydroxymethyl)propan-2-yl)nicotinamide]",MICx,[1]; [5],31 µM
same,IC50,human hepG2 cells; [6],67.6 µM
same,IC50,human hepG2 cells; [7],67.6 µM
"O=C(NCCc1ccc(-n2cc(CN(Cc3ccccn3)Cc3ccccn3)nn2)cc1)[C@H]1O[C@H](O)[C@H](O)[C@@H](O)[C@H]1O [Example 101, (2S,3R,4S,5R,6S)—N-(4-(4-((Bis(pyridin-2-ylmethyl)amino)methyl)-1H-1,2,3-triazol-1-yl)phenethyl)-3,4,5,6-tetrahydroxytetrahydro-2H-pyran-2-carboxamide]",IC50,human hepG2 cells; [6],~220 µM
"O=C(NC[C@@H](O)CO)c1ccc(CN(Cc2ccccn2)Cc2ccccn2)nc1 [Example 97, (R)-6-((bis(pyridin-2-ylmethyl)amino)methyl)-N-(2,3-dihydroxypropyl)nicotinamide]",IC50,human hepG2 cells; [6],131 µM
"O=C(CN(CCN(Cc1ccccn1)Cc1ccccn1)Cc1ccccn1)Nc1ccc(CCNC(=O)c2cnccn2)cc1 [Example 27, N-(4-(2-((2-(bis(pyridin-2-ylmethyl)amino)ethyl)(pyridin-2-ylmethyl)amino)acetamido)phenethyl)pyrazine-2-carboxamide]",Meropenem activity in presence of inhibitor,[2],1 mg/L
same,Meropenem activity in presence of inhibitor,[3],0.125 mg/L
O=C(CNCCc1ccc(NC(=O)CN(CCN(Cc2ccccn2)Cc2ccccn2)Cc2ccccn2)cc1)NCC(O)CO (centres unmarked) [Example 108],IC50,human hepG2 cells; [6],> 1000 µM
"O=C(O)C[C@@H]1CC[C@H](NC(=O)c2ccc(CN(Cc3ccccn3)Cc3ccccn3)nc2)B(O)O1 [Example 163, 2-((3R,6S)-3-(6-((Bis(pyridin-2-ylmethyl)amino)methyl)nicotinamido)-2-hydroxy-1,2-oxaborinan-6-yl)acetic acid]",IC50,human hepG2 cells; [8],100 µM
"O=C(c1ccc(CN(Cc2ccccn2)Cc2ccccn2)nc1)N1CCNCC1 [Example 105, (6-((bis(pyridin-2-ylmethyl)amino)methyl)pyridin-3-yl)(piperazin-1-yl)methanone]",MICx,[1]; [5],31 µM
same,IC50,human hepG2 cells; [8],100 µM
same,IC50,human hepG2 cells; [6],~210 µM
"CN(C[C@H](O)[C@@H](O)[C@H](O)[C@H](O)CO)C(=O)Cc1ccc(-n2cc(CN(Cc3ccccn3)Cc3ccccn3)nn2)cc1 [Example 96, 2-(4-(4-((bis(pyridin-2-ylmethyl)amino)methyl)-1H-1,2,3-triazol-1-yl)phenyl)-N-methyl-N-((2S,3R,4R,5R)-2,3,4,5,6-pentahydroxyhexyl)acetamide]",MICx,[1]; [5],125 µM
same,IC50,human hepG2 cells; [6],> 1000 µM
same,IC50,human hepG2 cells; [7],≥ 118 µM
"C[C@@H](O)[C@H]1C(=O)N2C(C(=O)O)=C(S[C@@H]3CN[C@H](CNS(N)(=O)=O)C3)[C@H](C)[C@H]12 [doripenem, reference compound]",MIC,"[2]; Pseudomonas aeruginosa, read-out: MIC of doripenem alone",64 µg/mL
same,MIC,"[3]; Klebsiella pneumoniae, read-out: MIC of doripenem alone",> 64 µg/mL
"O=C(Cc1ccc(-n2cc(CN(Cc3ccccn3)Cc3ccccn3)nn2)cc1)NC[C@H](O)CO [Example 104, (S)-2-(4-(4-((bis(pyridin-2-ylmethyl)amino)methyl)-1H-1,2,3-triazol-1-yl)phenyl)-N-(2,3-dihydroxypropyl)acetamide]",IC50,human hepG2 cells; [6],224 µM
"NCc1ccc(CN(Cc2ccccn2)Cc2ccccn2)nc1 [Example 147, 1-(5-(aminomethyl)pyridin-2-yl)-N,N-bis(pyridin-2-ylmethyl) methanamine hydrochloride]",IC50,"human hepG2 cells; Homo sapiens, HepG2, 24 h",~10 µM
"O=C(Cc1ccc(-n2cc(CN(Cc3ccccn3)Cc3ccccn3)nn2)cc1)NC(CO)(CO)CO [Example 98, 2-(4-(4-((bis(pyridin-2-ylmethyl)amino)methyl)-1H-1,2,3-triazol-1-yl)phenyl)-N-(1,3-dihydroxy-2-(hydroxymethyl)propan-2-yl)acetamide]",MICx,[1]; [5],125 µM
same,IC50,human hepG2 cells; [6],259 µM
same,IC50,human hepG2 cells; [7],259 µM
"OCc1ccc(CN(Cc2ccccn2)Cc2ccccn2)nc1 [Example 14, (6-((bis(pyridin-2-ylmethyl)amino)methyl)pyridin-3-yl) methanol]",MICx,[1]; [5],31 µM
same,IC50,human hepG2 cells; [6],12.4 µM
same,IC50,human hepG2 cells; [7],12.4 µM
"O=C(CN(CCN(Cc1ccccn1)Cc1ccccn1)Cc1ccccn1)Nc1ccc(CC(=O)NC(CO)(CO)CO)cc1 [Example 24, 2-((2-(bis(pyridin-2-ylmethyl)amino)ethyl)(pyridin-2-ylmethyl)amino)-N-(4-(2-(1,3-dihydroxy-2-(hydroxymethyl)propan-2-ylamino)-2-oxoethyl)phenyl)acetamide]",MICx,[1]; [5],31 µM
same,IC50,human hepG2 cells; [7],60 µM
"CN[C@H](CC(C)C)C(=O)N[C@H]1C(=O)N[C@@H](CC(N)=O)C(=O)N[C@H]2C(=O)N[C@H]3C(=O)N[C@H](C(=O)N[C@H](C(=O)O)c4cc(O)cc(O)c4-c4cc3ccc4O)[C@H](O)c3ccc(c(Cl)c3)Oc3cc2cc(c3O[C@@H]2O[C@H](CO)[C@@H](O)[C@H](O)[C@H]2O[C@H]2C[C@](C)(N)[C@H](O)[C@H](C)O2)Oc2ccc(cc2Cl)[C@H]1O [Vancomycin, reference compound]",MICx,[1],> 1000^d μM
same,IC50,human hepG2 cells; [4],20 µM
"O=C(O)CN1CCN(CC(=O)O)CCN([C@H](CO)[C@H](O)CO)CCN(CC(=O)O)CC1 [Butrol, reference compound]",MICx,[1]; estimated values (footnote c),15^c μM
same,IC50,"human hepG2 cells; estimated values (footnote c), read-out: IC50h",60 µM
"COC(=O)c1ccc(CN(Cc2ccccc2)Cc2ccccn2)nc1 [Example 186, methyl 6-((benzyl(pyridin-2-ylmethyl)amino)methyl)nicotinate]",IC50,human hepG2 cells; [6],~215 µM
"CC(=O)OC[C@H]1OC(OC(C)=O)[C@H](NC(=O)Cc2ccc(NC(=O)CN(CCN(Cc3ccccn3)Cc3ccccn3)Cc3ccccn3)cc2)[C@@H](OC(C)=O)[C@@H]1OC(C)=O (stereo partly drawn) [Example 22a, (3R,4R,5S,6R)-6-(acetoxymethyl)-3-(2-(4-(2-((2-(bis(pyridin-2-ylmethyl)amino)ethyl)(pyridin-2-ylmethyl)amino)acetamido)phenyl)acetamido) tetrahydro-2H-pyran-2,4,5-triyltriacetate]",Meropenem activity in presence of inhibitor,[2],1 mg/L
same,Meropenem activity in presence of inhibitor,[3],0.25 mg/L
"CCOCCOCCOCCN(CCN(Cc1ccccn1)Cc1ccccn1)Cc1ccccn1 [Example 9, N1-(2-(2-(2-ethoxyethoxy)ethoxy)ethyl)-N1,N2,N2-tris(pyridin-2-ylmethyl)ethane-1,2-diamine]",Meropenem activity in presence of inhibitor,[2],≤0.5 mg/L
same,Meropenem activity in presence of inhibitor,[3],≤0.5 mg/L
"OC[C@H]1OC(O)[C@H](n2cc(CN(Cc3ccccn3)Cc3ccccn3)nn2)[C@@H](O)[C@@H]1O (stereo partly drawn) [Example 84, (3R,4R,5S,6R)-3-(4-((bis(pyridin-2-ylmethyl)amino)methyl)-1H-1,2,3-triazol-1-yl)-6-(hydroxymethyl)tetrahydro-2H-pyran-2,4,5-triol]",MICx,[1]; [5],125 µM
same,IC50,human hepG2 cells; [6],> 1000 µM
same,IC50,human hepG2 cells; [7],116 µM
O=C(O)CNC(=O)CNC(=O)c1ccc(CN(Cc2ccccn2)Cc2ccccn2)nc1 [Example 109],IC50,human hepG2 cells; [6],128 µM
